The values that follow come from patent KR20230169706A, “베타-카리오필렌을 포함하는 존속성 세균 억제용 조성물” (국민대학교산학협력단, priority 2022, dated 2023).

Entries after “also recorded” stand apart in the source; their conditions may differ.

The subject of this test is persister cells of Staphylococcus aureus ATCC 6538 [황색포도상구균(Staphylococcus aureus ATCC 6538), 존속성 세균(persister cell)]. The test can be described thus: Persister cell inhibition by beta-caryophyllene co-treated with antibiotics at 10x MIC (CFU count). The test is classed as cell-based.

Regarding `C=C1CC/C=C(\C)CC[C@@H]2[C@@H]1CC2(C)C` [베타-카리오필렌, β-caryophyllene], the “amount of persister cells” value reads like this: (beta-caryophyllene 1 mM or more, each antibiotic (oxacillin, tobramycin, ciprofloxacin) at 10x MIC, 24 h) “상당량 감소”; (beta-caryophyllene 1 to 10 mM) “크게 저하”; (beta-caryophyllene together with antibiotic at 10x MIC, 24 h, no beta-caryophyllene concentration stated) “존속성 세균의 양이 감소”. Also, the “inhibition of persister cells” value is ≥ 80% (beta-caryophyllene 2 mM or more, all antibiotics (oxacillin, tobramycin, ciprofloxacin) at 10x MIC, 24 h, about 80% or more); ≥ 80% (ciprofloxacin, weight ratio beta-caryophyllene:antibiotic about 10:1 to 100:1); ≥ 80% (oxacillin, weight ratio beta-caryophyllene:antibiotic about 100:1 to 800:1); ≥ 80% (tobramycin, weight ratio beta-caryophyllene:antibiotic about 5:1 to 30:1). Where the note is “beta-caryophyllene 2 to 10 mM, various antibiotics”, the “inhibitory effect on persister cells” value was ≥ 80%. Moreover, the “inhibition of persister cells (in words)” value (persister cells not killed by oxacillin, tobramycin or ciprofloxacin, no beta-caryophyllene concentration stated) is on record as “상당량 억제; also recorded: 효과적으로 억제; also recorded: 우수한 억제 활성”.
